US20100034839A1, “METHODS FOR TREATING VIRAL DISORDERS” (priority 2008, published 2010)
“Also recorded” adds a separate entry of the source.

Columns and labels:
[1] = tested on: cell surface CLIP on Raji and Daudi cells; test: Competition of synthetic peptides with cell surface CLIP (Fitc anti-human CLIP); assay type: cell-based; conditions: biotinylated competing peptide
Excerpt: Based on a computational model comparing the peptide content of TNP mixture and identifying those peptides that would have the likeliest ability to compete for the peptide/antigen binding site for MHC class II (human HLA-DR, DP, and DQ), several peptide candidates were synthesized and examined for activity. The purpose of the study was to determine if synthetic peptides can compete for binding with CLIP peptides as measured with either Fitc anti-human CLIP antibody or, comparatively in the case of biotinylated peptides, with Streptavidin.
Cell Culture Conditions: The Raji and Daudi cell lines were purchased from American Type Culture Collection, were thawed, and grown in RPMI 1640 medium supplemented with standard supplements, including 10% fetal calf serum, gentamycin, penicillin, streptomycin, sodium pyruvate, HEPES buffer, 1-glutamine, and 2-ME.
Protocol: Cells were plated into a 12 well plate with 3 mls total volume containing approximately 1.5×10^6/well for Daudi cells and 3.0×10^6/well for Raji cells. Treatment groups included no treatment as control; MKN 3 and MKN 5 at 50 microMolar final concentration based on the reported molarity of the synthesized compounds.
The cells were incubated at 37° C. in an atmosphere containing 5% CO2 and approximately 92% humidity. The cells were incubated for 4 and 24 hours. At each time point, the cells from that experimental time were harvested and stained for flow cytometric analysis of cell surface expression of CLIP (MHC Class II invariant peptide, human) by using the commercially available (Becton/Dickinson/PHarmingen) anti-human CLIP Fitc. Catalogue #555981 versus Streptavidin.
Harvested cells were stained using standard staining procedure that called for a 1:100 dilution of Fitc-anti-human CLIP or isotype control versus 1:200 dilution of the commercially prepared Streptavidin. Following staining on ice for 25 minutes, cells were washed with PBS/FCS and resuspended in 100 microliters and added to staining tubes containing 400 microliters of PBS. Samples were acquired and analyzed on a Coulter Excel Flow Cytometer.
In the Histogram analyses of FIGS. 5-7 the Y axis represents cell number of the 5000 live cells versus the X axis which is a reflection of relative Fitc fluorescence versus Streptavidin-PE (eBioscience, Cat. #12-4317) that will bind with high affinity to cell-bound biotinylated peptides. The distance between the histogram from the isotype control staining versus the histogram reflecting the specific stain and is a measure of level of cell surface CLIP or the biotinylated peptide when stained with Streptavidin on a population of live Raji or Daudi cells as indicated.

[2] = tested on: CLIP^+ B cells and lymphocyte subsets in spleen and lymph nodes; test: CpG-ODN (TLR9) induced chronic hyperimmune activation in B6.129 mice with or without peptide; assay type: in vivo, mouse
Method: FIG. 14 depicts that administration of targeted peptide in combination with CpG-ODN reverses the inflammatory effects of TLR9 activation. FIG. 14a: B6.129 mice were injected with CpG-ODN, a TLR9 agonist without (black squares) or with VGV-hB (black circles). Total spleen cell recoveries (top panel) and lymph node cell recoveries (lower panel) at 24, 72, and 96 hours are reported. FIG. 14b: spleen cells from untreated B6.129 (upper left panel) mice, spleen cells from mice injected intraperitoneally with CpG-ODN for 48 hours (upper right panel), spleen cells from mice injected intraperitoneally with CpG-ODN+targeted peptide (VGV-hB) (lower left panel), or spleen cells from mice injected intraperitoneally with CpG-ODN+scrambled peptide (VGV-sP) (lower right panel), were harvested and stained using anti-mouse B220-PE Cy5 versus 15G4-FITC anti-mouse CLIP/I-Ab Cells were analyzed flow-cytometrically using two-dimensional dot plot analysis. FIGS. 14c & 14d: individual B6.129 animals were injected with CpG-ODN and one of three doses of peptide replacement, with either VGV-hB (FIG. 14c) or VGV-sB (FIG. 14d). As indicated, for each dose, four to six animals were injected with each of three doses, at 0.5, 5, and 50 μg per injection. Splenocytes were removed after 48 hours, stained using anti-mouse B220-PE versus 15G4-FITC anti-mouse CLIP/I-Ab. Cells were acquired and analyzed with flow cytometry, using two-dimensional dot plot analysis. Percentages of CLIP+ B cells were plotted using scatter plot analysis. The formula for the slope of each line is indicated in each of FIGS. 14c & 14d.
FIG. 15 depicts the effects of targeted peptides on the distribution of TLR activated lymphoid subsets of B cells, CD4+ T cells, CD8+ T cells, and on CD4+ T regulatory cells. FIG. 15a: B6.129 mice were injected with CpG-ODN without (squares) or with (circles) VGV-hB. Spleen (solid black symbols) and lymph nodes (open symbols) were harvested at 24, 72, and 96 hours, and stained using anti-mouse B220-PE versus 15G4-FITC anti-mouse CLIP/I-Ab. Data were plotted as percent CLIP+ B cells from either spleen or node. FIG. 15b: B6.129 mice were injected with CpG-ODN without (squares) or with (circles) VGV-hB. Spleen (solid black symbols) and lymph nodes (open symbols) were harvested at 24, 72, and 96 hours, and stained using anti-mouse CD8-PE. Data were plotted as percent CD8+ T cells from either spleen or node as indicated. FIG. 15c: B6.129 mice were injected with CpG-ODN without (squares) or with (circles) VGV-hB. Spleen (solid black symbols) and lymph nodes (open symbols) were harvested at 24, 72, and 96 hours, and stained using anti-mouse CD4 GK1.5-FITC. Data were plotted as percent CD4+ T cells from either spleen or node. FIG. 15d: B6.129 mice were injected with CpG-ODN without (squares) or with (circles) VGV-hB. Spleen (solid black symbols) and lymph nodes (open symbols) were harvested at 24, 72, and 96 hours, and stained using anti-mouse CD4 GK1.5-PE versus anti-mouse FoxP3-FITC. Data were plotted as percent CD4+ FoxP3+ T cells from either spleen or node.
FIG. 16 depicts that TLR activation and peptide reversal differentially affect cell death of lymphocyte subsets. FIG. 16a: B6.129 mice were injected with CpG-ODN without (solid black lines) or with VGV-hB (dashed lines). Cells were counted and viability was determined flow cytometrically. T cell viability 48 hours subsequent to CPG-ODN treatment alone is indicated by solid circles and solid black line; T cell viability, 48 hours after treatment with CpG-ODN and VGV-hB, is indicated by solid squares and dashed line. B cell viability, CpG-ODN treatment alone, is indicated by black x's on a solid black line; B cell viability after CpG-ODN and VGV-hB is indicated by solid black triangles and dashed lines. FIG. 16b: Ag-specific T cell hybridomas induce apoptosis B cells. FIG. 16c: Ag-specific T cell hybridomas induce apoptosis in resting and in CpG-ODN stimulated splenocytes, but not in antigen receptor engaged B cells. […]

[3] = VGV-hB in combination with TLR 9 stimulation, FIG. 16a

Sequence: FRIMAVLAS
- cell surface bound CLIP ([1]; 4 hours): small decreases in cell surface bound CLIP
- cell surface bound CLIP ([1]; 24 hours): significant decreases
- effect of CpG-ODN on total cell numbers, absolute numbers of B cells and CLIP^+ B cell distribution between spleen and lymph node ([2]; 24, 72, 96 hours, FIG. 15a): reduced
- percent of CpG-induced CLIP^+ B cells in spleen ([2]; CpG-ODN plus peptide intraperitoneally, 48 hours, FIG. 14b): reversed the effects of CPG alone
- CD8^+ T cells ([2]; CpG-ODN with VGV-hB): promotes expansion of CD8^+ T cells
- CD4^+FoxP3^+ Tregs in the lymph nodes ([2]; FIG. 15d, 15e, listed as VGV-hB): reversible; also recorded: decreases in Tregs
- B cell death [2, 3]: increased B cell death
- number of live CD4^+ T cells [2, 3]: moderate increase in the number of live CD4^+ T cells
- reversal of CpG-ODN activation incl. percent of CLIP^+ B cells from total spleen, peptide titration ([2]; dose titration of peptide per mouse, FIGS. 14c and 14d): reversed the effects of CpG-ODN activation
